Test results taken from patent publication US11820756B2, “Bradykinin B2 receptor antagonists” (Pharvaris Netherlands B.V., priority 2017, dated 2023).

These compounds were tested against T1, human bradykinin B2 receptor (hB2R) (Homo sapiens, UniProt P30411) (assay: cell-based human bradykinin B2 receptor calcium mobilization (hB2R-CaM) assay). Conditions: HTS041C cells, bradykinin at EC80, calcium mobilization; read-out: IC50-value towards human bradykinin B2 receptor (hB2R).
T1 sequence (P30411 1-391): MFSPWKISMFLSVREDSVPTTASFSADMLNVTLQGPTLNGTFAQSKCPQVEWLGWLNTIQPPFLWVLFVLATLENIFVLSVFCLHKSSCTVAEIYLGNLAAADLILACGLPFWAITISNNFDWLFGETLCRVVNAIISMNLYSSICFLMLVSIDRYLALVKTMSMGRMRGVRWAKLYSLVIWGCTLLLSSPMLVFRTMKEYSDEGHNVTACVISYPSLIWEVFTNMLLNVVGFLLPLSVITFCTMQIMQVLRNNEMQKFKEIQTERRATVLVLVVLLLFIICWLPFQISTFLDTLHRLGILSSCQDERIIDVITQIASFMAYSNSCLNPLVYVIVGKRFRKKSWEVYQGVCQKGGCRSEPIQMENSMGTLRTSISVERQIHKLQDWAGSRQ
From the text: The following cell-based human bradykinin B2 receptor calcium mobilization (hB2R-CaM) assay was used to determine the antagonistic activity of compounds selected from the example compounds Nos. 1 to 168 towards human bradykinin B2 receptor (hB2R). The assay is defined herein as a standard in vitro B2 receptor activity assay, which can be used to determine IC50 values of the compounds according to the present invention, e. g. the compounds shown in Examples 1-11.
The antagonistic activity of compounds according to the present invention was investigated with the hB2R-CaM assay using the B2 Bradykinin Receptor Stable Cell Line HTS041C (Eurofins, St. Charles MO) and the FLIPR Calcium 6 Assay Kit (Molecular Devices, Wokingham, UK) according to the instructions of the providers. CaM assay measurements were performed with a Flexstation 3 System (Molecular Devices) which allows the precise addition of compounds (B2R antagonists) and bradykinin (B2R agonist) to the cells and adjacent continuous recording of the time-dependent CaM assay signals.
HTS041C cells were cultured in high glucose DMEM cell culture medium (Lonza) supplemented with 10% heat-inactivated FBS (PAN Biotech), 10 mM HEPES, Penicillin/Streptomycin (200 U/mL, 200 μg/mL), 1× non-essential amino acids (Lonza), and 250 μg/mL G418 (Invivogen) in cell incubator at 37° C. in a 5% CO2 atmosphere.
One day before the CaM assay experiments cells were seeded in 200 μL DMEM cell culture medium with reduced FBS (5%) and without G418 on clear bottom black 96 well plates (ThermoFisher #165305). Cell starvation was carried out by incubation (37° C., 5% CO2) of 70.000 cells/well for 24 h to 28 h. Immediately prior calcium dye-loading the medium was carefully aspirated and cells were washed with Hank's balanced salt solution (HBSS, Gibco) containing Ca^2+, Mg^2+ and 20 mM HEPES, adjusted to pH 7.4 (HBSS+). Calcium Dye Loading of the Cells:
For calcium dye-loading one FLIPR 6 assay aliquot was dissolved in 20 mL HBSS+. 150 μL of the dye loading solution was added to cell plate and incubated for 120 min at 37° C. and 5% CO2. After dye loading the cell plate was immediately transferred to the pre-warmed (37° C.) Flexstation 3 System for CaM assaying.
Freshly prepared compound (B2 receptor antagonists) dilution series (8 pt, n=2) and bradykinin (B2 receptor agonist) solution in non-binding plates (Costar) were transferred to the Flexstation System (source plate) shortly before starting the experiment. Bradykinin was added in EC80 concentration determined in n>3 preliminary experiments with 8 pt concentration response curves (n=8)). CaM assay was executed by Flexstation 3 System starting with recording of calcium-sensitive dye fluorescence in bottom-read Flex modus with ex/em=485 nm/525 nm, cut off(em)=[…]. After 20 s, 50 μL of 4-fold concentrated compound dilutions were added to the cells resulting in a final DMSO (Sigma) concentration of 0.1% in the cell plate. CaM signals were monitored for 80 s after additions for detection of potential agonistic activities. Prior to bradykinin stimulus compound- and vehicle-treated cells were incubated for 25 min at 37° C. within the Flexstation System. Then 50 μL of a 5-fold concentrated bradykinin solution (HBSS+, 0.1% DMSO) was added to trigger CaM signals (Read out: Max-Min values) which were measured for 80 s post bradykinin stimulus.
IC50 determinations were performed by 4 parameter logistic model curve fitting of the 8 pt (n=2) compound concentration response curves using XLFIT (IDBS) software.
Relative IC50 values of the test compounds were determined with the same hB2R-CaM assay as in Example 12.

IC50 | Structure (SMILES)
51 to 250 nM | Cc1cc(-n2nc(C)nc2C)c2cccc(OCc3c(Cl)cc(F)cc3[C@H](C)NC(=O)c3coc(C)n3)c2n1 [Compound 137]
≤ 50 nM | [2H]C([2H])([2H])[C@H](NC(=O)COC(F)F)c1cc(F)cc(Cl)c1COc1cccc2c(-c3ncnn3C)cc(C)nc12 [Compound 202]
≤ 50 nM | [2H][C@@](C)(NC(=O)CC(F)F)c1cc(F)cc(Cl)c1COc1cccc2c(-n3ncnc3C)cc(C)nc12 [Compound 209]
≤ 50 nM | Cc1cc(-n2nc(C)nc2C)c2cccc(OCc3c(Cl)cc(F)cc3[C@H](C)NC(=O)COC(F)(F)F)c2n1 [Compound 139]
51 to 250 nM | Cc1cc(-n2cc(F)cn2)c2cccc(OCc3c(Cl)cc(F)cc3[C@H](C)NC(=O)[C@H](O)C(C)C)c2n1 [Compound 67]
251 to 1000 nM | CC[C@@H](O)C(=O)N[C@@H](C)c1cc(F)cc(Cl)c1COc1cccc2c(-n3cnc(C)n3)cc(C)nc12 [Compound 100]
≤ 50 nM | Cc1cc(-n2ncnc2C)c2cccc(OCc3c(Cl)cc(F)cc3[C@H](C)NC(=O)c3cocn3)c2n1 [Compound 159]
51 to 250 nM | CC[C@@H](O)C(=O)N[C@@H](C)c1cc(F)cc(Cl)c1COc1cccc2c(-n3nccn3)cc(C)nc12 [Compound 34]
≤ 50 nM | Cc1cc(-c2[nH]ncc2C)c2cccc(OCc3c(Cl)cc(F)cc3[C@H](C)NC(=O)COC(F)F)c2n1 [Compound 185]
≤ 50 nM | Cc1cc(-n2ncnc2C)c2cccc(OCc3c(Cl)cc(F)cc3[C@H](C)NC(=O)COC(F)(F)F)c2n1 [Compound 161]
≤ 50 nM | Cc1cc(-n2ncnc2C)c2cccc(OCc3c(Cl)cc(F)cc3[C@H](C)NC(=O)CC(F)F)c2n1 [Compound 173]
≤ 50 nM | Cc1cc(-c2ncnn2C)c2cccc(OCc3c(Cl)cc(F)cc3[C@H](C)NC(=O)[C@H](C)F)c2n1 [Compound 203]
≤ 50 nM | Cc1cc(-n2cc(F)cn2)c2cccc(OCc3c(Cl)cc(F)cc3[C@H](C)NC(=O)c3cccnc3)c2n1 [Compound 124]
≤ 50 nM | Cc1cc(-c2ncnn2C)c2cccc(OCc3c(Cl)cc(F)cc3[C@H](C)NC(=O)c3cocn3)c2n1 [Compound 128]
≤ 50 nM | [2H]C([2H])([2H])[C@]([2H])(NC(=O)c1cocn1)c1cc(F)cc(Cl)c1COc1cccc2c(-c3ncnn3C)cc(C)nc12 [Compound 201]
51 to 250 nM | Cc1cc(-n2cc(F)cn2)c2cccc(OCc3c(Cl)cc(F)cc3[C@H](C)NC(=O)c3cc(C)on3)c2n1 [Compound 88]
≤ 50 nM | Cc1cc(-c2ccnn2C)c2cccc(OCc3c(Cl)cc(F)cc3[C@H](C)NC(=O)C(F)F)c2n1 [Compound 176]
≤ 50 nM | COCC(=O)N[C@@H](C)c1cc(F)cc(Cl)c1COc1cccc2c(-c3ncnn3C)cc(C)nc12 [Compound 83]
≤ 50 nM | Cc1cc(-n2cc(F)cn2)c2cccc(OCc3c(Cl)cc(F)cc3[C@H](C)NC(=O)c3coc(C)n3)c2n1 [Compound 92]
51 to 250 nM | Cc1cc(-n2cc(F)cn2)c2cccc(OCc3c(Cl)cc(F)cc3[C@H](C)NC(=O)C3CCC(C)(C)O3)c2n1 (stereo partly drawn) [Compound 109]
≤ 50 nM | Cc1cc(-n2cc(F)cn2)c2cccc(OCc3c(Cl)cc(F)cc3[C@H](C)NC(=O)C(C)(C)CO)c2n1 [Compound 60]
≤ 50 nM | Cc1cc(-c2ncnn2C)c2cccc(OCc3c(Cl)cc(F)cc3[C@H](C)NC(=O)c3coc(C)n3)c2n1 [Compound 130]
≤ 50 nM | Cc1cc(-n2cc(F)cn2)c2cccc(OCc3c(Cl)cc(F)cc3[C@H](C)NC(=O)[C@@H]3COC(C)(C)O3)c2n1 [Compound 61]

IC50 | Structure (SMILES)
≤ 50 nM | Cc1cc(-c2ccnn2C)c2cccc(OCc3c(Cl)cc(F)cc3[C@H](C)NC(=O)COC(F)F)c2n1 [Compound 175]
≤ 50 nM | [2H][C@@](C)(NC(=O)[C@@H](C)F)c1cc(F)cc(Cl)c1COc1cccc2c(-n3ncnc3C)cc(C)nc12 [Compound 11C, (R)—N—((S)-1-deutero-1-(3-chloro-5-fluoro-2-((2-methyl-4-(5-methyl-1H-1,2,4-triazol-1-yl)quinolin-8-yloxy)methyl)phenyl)ethyl)-2-fluoropropanamide]
251 to 1000 nM | CC(=O)C(=O)N[C@@H](C)c1cc(F)cc(Cl)c1COc1cccc2c(-n3cc(F)cn3)cc(C)nc12 [Compound 55]
51 to 250 nM | Cc1cc(-n2cc(F)cn2)c2cccc(OCc3c(Cl)cc(F)cc3[C@H](C)NC(=O)[C@H]3COC(=O)N3)c2n1 [Compound 112]
≤ 50 nM | CCc1ncnn1-c1cc(C)nc2c(OCc3c(Cl)cc(F)cc3[C@H](C)NC(=O)C(C)(C)O)cccc12 [Compound 171]
51 to 250 nM | Cc1cc(-n2cc(F)cn2)c2cccc(OCc3c(Cl)cc(F)cc3[C@H](C)NC(=O)c3ccccn3)c2n1 [Compound 123]
51 to 250 nM | Cc1cc(-n2cc(F)cn2)c2cccc(OCc3c(Cl)cc(F)cc3[C@H](C)NC(=O)c3cc(C)n(C)n3)c2n1 [Compound 86]
≤ 50 nM | Cc1cc(-c2ncnn2C)c2cccc(OCc3c(Cl)cc(F)cc3[C@H](C)NC(=O)[C@@H](C)F)c2n1 [Compound 204]
≤ 50 nM | Cc1cc(-c2ccnn2C)c2cccc(OCc3c(Cl)cc(F)cc3[C@H](C)NC(=O)C(C)(C)O)c2n1 [Compound 184]
≤ 50 nM | Cc1cc(-c2ncnn2C)c2cccc(OCc3c(Cl)cc(F)cc3[C@H](C)NC(=O)c3ocnc3C)c2n1 [Compound 126]
51 to 250 nM | Cc1cc(-n2cc(F)cn2)c2cccc(OCc3c(Cl)cc(F)cc3[C@H](C)NC(=O)[C@@H](O)C(C)C)c2n1 [Compound 22]
51 to 250 nM | Cc1cc(-n2nccn2)c2cccc(OCc3c(Cl)cc(F)cc3[C@H](C)NC(=O)[C@H](C)O)c2n1 [Compound 32]
≤ 50 nM | Cc1cc(-n2cc(F)cn2)c2cccc(OCc3c(Cl)cc(F)cc3[C@H](C)NC(=O)c3cncs3)c2n1 [Compound 90]
51 to 250 nM | Cc1cc(-n2cc(F)cn2)c2cccc(OCc3c(Cl)cc(F)cc3[C@H](C)NC(=O)[C@H]3CCC(=O)N3)c2n1 [Compound 115]
≤ 50 nM | Cc1cc(-n2cc(F)cn2)c2cccc(OCc3c(Cl)cc(F)cc3[C@H](C)NC(=O)[C@H](C)CO)c2n1 [Compound 59]
≤ 50 nM | Cc1cc(-n2ncnc2C)c2cccc(OCc3c(Cl)cc(F)cc3[C@H](C)NC(=O)C(F)F)c2n1 [Compound 174]
≤ 50 nM | CCc1ncnn1-c1cc(C)nc2c(OCc3c(Cl)cc(F)cc3[C@H](C)NC(=O)c3cocn3)cccc12 [Compound 170]
≤ 50 nM | Cc1cc(-c2ccnn2C)c2cccc(OCc3c(Cl)cc(F)cc3[C@H](C)NC(=O)[C@H](C)O)c2n1 [Compound 195]
51 to 250 nM | Cc1cc(-n2nc(C)nc2C)c2cccc(OCc3c(Cl)cc(F)cc3[C@H](C)NC(=O)c3cc(C)on3)c2n1 [Compound 136]
51 to 250 nM | Cc1cc(-n2cc(F)cn2)c2cccc(OCc3c(Cl)cc(F)cc3[C@H](C)NC(=O)[C@@H]3CNC(=O)N3)c2n1 [Compound 113]
≤ 50 nM | Cc1cc(-c2ncnn2C)c2cccc(OCc3c(Cl)cc(F)cc3[C@H](C)NC(=O)c3ccccn3)c2n1 [Compound 164]
≤ 50 nM | Cc1cc(-c2ncnn2C)c2cccc(OCc3c(Cl)cc(F)cc3[C@H](C)NC(=O)c3ccon3)c2n1 [Compound 122]
